Source: US20240408085A1, “COMPOUND FOR DEGRADATION OF BCL-2 FAMILY PROTEINS AND MEDICAL APPLICATION THEREOF” (XIZANG HAISCO PHARMACEUTICAL CO., LTD., priority 2021, published 2024)

Test system: MOLT-4 cells
Experiment: Cell proliferation activity in MOLT-4 cells (72 h, cell viability luminescence)
Format: cell-based, human
Conditions: Homo sapiens, read-out: IC50 for the inhibition of MOLT-4 cell proliferation
Procedure: MOLT-4 cells are acute lymphoblastic leukemia cell lines in humans. The cells were purchased from ATCC. Culture conditions: RPMI-1640+10% FBS+1% penicillin-streptomycin solution. The cells were cultured in a 37° C., 5% CO2 incubator. The cells were plated in a 96-well plate, with 5×10^3 cells/well. After plating, compounds at different concentrations were added and cultured in a 37° C., 5% CO2 incubator for 72 h. After the completion of culture, a reagent (Promega, G7573) for detecting the cell viability was added. The mixture was uniformly mixed for 2 minutes and then incubated at room temperature for 10 minutes. The luminescence signal was detected with a multimode plate reader (BMG, PHERAstar FSX). The luminescence readings were processed using GraphPad Prism 8.0 software and the IC50 values of the compounds for the inhibition of cell proliferation and the maximum inhibition rate were calculated according to formula (2) and formula (3), respectively, wherein Tadministration denotes the cell signal readings obtained after incubation with the compounds for 72 h, and Tvehicle denotes the cell signal readings obtained after incubation with the vehicle control for 72 h.
Calculation of Max inhibition %: after the processing according to formula (2), the inhibition rate of the compounds at the highest concentration was calculated.

| SMILES | IC50 [nM] |
| --- | --- |
| Cc1ncsc1-c1ccc([C@H](C)NC(=O)[C@@H]2C[C@@H](O)CN2C(=O)[C@@H](NC(=O)CCCCCC(=O)N2C[C@H]3CN(CC[C@H](CSc4ccccc4)Nc4ccc(S(=O)(=O)NC(=O)c5ccc(N6CCN(CC7=C(c8ccc(Cl)cc8)CCC8(CC8)C7)CC6)cc5)cc4S(=O)(=O)C(F)(F)F)C[C@H]3C2)C(C)(C)C)cc1 [Compound 18, cis-(2S,4R)-1-((S)-2-(7-(5-((R)-3-((4-(N-(4-(4-((6-(4-chlorophenyl)spiro[2.5]oct-5-en-5-yl)methyl)piperazin-1-yl)benzoyl)sulfamoyl)-2-((trifluoromethyl)sulfonyl)phenyl)amino)-4-(phenylthio)butyl)hexahydropyrrolo[3,4-c]pyrrol-2(1H)-yl)-7-oxoheptanamido)-3,3-dimethylbutanoyl)-4-hydroxy-N—((S)-1-(4-(4-methylthiazol-5-yl)phenyl)ethyl)pyrrolidine-2-carboxamide] | < 500 |
| Cc1ncsc1-c1ccc([C@H](C)NC(=O)[C@@H]2C[C@@H](O)CN2C(=O)[C@@H](NC(=O)CCCCCCC(=O)N2CCN(CC[C@H](CSc3ccccc3)Nc3ccc(S(=O)(=O)NC(=O)c4ccc(N5CCN(CC6=C(c7ccc(Cl)cc7F)CCCCC6)CC5)cc4)cc3S(=O)(=O)C(F)(F)F)CC2)C(C)(C)C)cc1 [Compound 36, (2S,4R)-1-((S)-2-(8-(4-((R)-3-((4-(N-(4-(4-((2-(4-chloro-2-fluorophenyl)cyclohept-1-en-1-yl)methyl)piperazin-1-yl)benzoyl)sulfamoyl)-2-((trifluoromethyl)sulfonyl)phenyl)amino)-4-(phenylthio)butyl)piperazin-1-yl)-8-oxooctanamido)-3,3-dimethylbutanoyl)-4-hydroxy-N—((S)-1-(4-(4-methylthiazol-5-yl)phenyl)ethyl)pyrrolidine-2-carboxamide] | < 500 |
| O=C1CCC(N2C(=O)c3ccc(N4CC(CN5CCN(CC[C@H](CSc6ccccc6)Nc6ccc(S(=O)(=O)NC(=O)c7ccc(N8CCN(CC9=C(c%10ccc(Cl)cc%10)CCCCC9)CC8)cc7)cc6S(=O)(=O)C(F)(F)F)CC5)C4)cc3C2=O)C(=O)N1 (stereo partly drawn) [Compound 44, 4-(4-((2-(4-chlorophenyl)cyclohept-1-en-1-yl)methyl)piperazin-1-yl)-N-((4-(((2R)-4-(4-((1-(2-(2,6-dioxopiperidin-3-yl)-1,3-dioxoisoindolin-5-yl)azetidin-3-yl)methyl)piperazin-1-yl)-1-(phenylthio)butan-2-yl)amino)-3-((trifluoromethyl)sulfonyl)phenyl)sulfonyl)benzamide] | < 500 |
| Cc1ncsc1-c1ccc([C@H](C)NC(=O)[C@@H]2C[C@@H](O)CN2C(=O)[C@@H](NC(=O)CCCCCC(=O)N2C[C@@H]3C[C@H]2CN3CC[C@H](CSc2ccccc2)Nc2ccc(S(=O)(=O)NC(=O)c3ccc(N4CCN(CC5=C(c6ccc(Cl)cc6F)CCC6(CC6)C5)CC4)cc3)cc2S(=O)(=O)C(F)(F)F)C(C)(C)C)cc1 [Compound 29, (2S,4R)-1-((S)-2-(7-((1S,4S)-5-((R)-3-((4-(N-(4-(4-((6-(4-chloro-2-fluorophenyl)spiro[2.5]oct-5-en-5-yl)methyl)piperazin-1-yl)benzoyl)sulfamoyl)-2-((trifluoromethyl)sulfonyl)phenyl)amino)-4-(phenylthio)butyl)-2,5-diazabicyclo[2.2.1]heptan-2-yl)-7-oxoheptanamido)-3,3-dimethylbutanoyl)-4-hydroxy-N—((S)-1-(4-(4-methylthiazol-5-yl)phenyl)ethyl)pyrrolidine-2-carboxamide] | < 500 |
| Cc1ncsc1-c1ccc([C@H](C)NC(=O)[C@@H]2C[C@@H](O)CN2C(=O)[C@@H](NC(=O)CCCCCC(=O)N2CCN(CC[C@H](CSc3ccccc3)Nc3ccc(S(=O)(=O)NC(=O)c4ccc(N5CCN(C/C6=C(\c7ccc(Cl)cc7)CCCCCC6)CC5)cc4)cc3S(=O)(=O)C(F)(F)F)CC2)C(C)(C)C)cc1 [Compound 43, (2S,4R)-1-((S)-2-(7-(4-((R)-3-((4-(N-(4-(4-((2-(4-chlorophenyl)cyclooct-1-en-1-yl)methyl)piperazin-1-yl)benzoyl)sulfamoyl)-2-((trifluoromethyl)sulfonyl)phenyl)amino)-4-(phenylthio)butyl)piperazin-1-yl)-7-oxoheptanamido)-3,3-dimethylbutanoyl)-4-hydroxy-N—((S)-1-(4-(4-methylthiazol-5-yl)phenyl)ethyl)pyrrolidine-2-carboxamide] | < 500 |
| Cc1ncsc1-c1ccc([C@H](C)NC(=O)[C@@H]2C[C@@H](O)CN2C(=O)[C@@H](NC(=O)CCCCCC(=O)N2C[C@@H]3C[C@H]2CN3CC[C@H](CSc2ccccc2)Nc2ccc(S(=O)(=O)NC(=O)c3ccc(N4CCN(CC5=C(c6ccc(Cl)cc6)CCC6(CC6)C5)CC4)cc3)cc2S(=O)(=O)C(F)(F)F)C(C)(C)C)cc1 [Compound 27, (2S,4R)-1-((S)-2-(7-((1S,4S)-5-((R)-3-((4-(N-(4-(4-((6-(4-chlorophenyl)spiro[2.5]oct-5-en-5-yl)methyl)piperazin-1-yl)benzoyl)sulfamoyl)-2-((trifluoromethyl)sulfonyl)phenyl)amino)-4-(phenylthio)butyl)-2,5-diazabicyclo[2.2.1]heptan-2-yl)-7-oxoheptanamido)-3,3-dimethylbutanoyl)-4-hydroxy-N—((S)-1-(4-(4-methylthiazol-5-yl)phenyl)ethyl)pyrrolidine-2-carboxamide] | < 500 |

The remaining lines, values ahead:

| IC50 [nM] | SMILES |
| --- | --- |
| < 500 | Cc1ncsc1-c1ccc([C@H](C)NC(=O)[C@@H]2C[C@@H](O)CN2C(=O)[C@@H](NC(=O)CCCCCC(=O)N2C[C@]3(C)CN(CC[C@H](CSc4ccccc4)Nc4ccc(S(=O)(=O)NC(=O)c5ccc(N6CCN(CC7=C(c8ccc(Cl)cc8)CCC(C)(C)C7)CC6)cc5)cc4S(=O)(=O)C(F)(F)F)C[C@]3(C)C2)C(C)(C)C)cc1 [Compound 26, cis-(2S,4R)-1-((S)-2-(7-(5-((R)-3-((4-(N-(4-(4-((4′-chloro-4,4-dimethyl-3,4,5,6-tetrahydro-[1,1′-biphenyl]-2-yl)methyl)piperazin-1-yl)benzoyl)sulfamoyl)-2-((trifluoromethyl)sulfonyl)phenyl)amino)-4-(phenylthio)butyl)-3a,6a-dimethylhexahydropyrrolo[3,4-c]pyrrol-2(1H)-yl)-7-oxoheptanamido)-3,3-dimethylbutanoyl)-4-hydroxy-N—((S)-1-(4-(4-methylthiazol-5-yl)phenyl)ethyl)pyrrolidine-2-carboxamide] |
| < 500 | Cc1ncsc1-c1ccc([C@H](C)NC(=O)[C@@H]2C[C@@H](O)CN2C(=O)[C@@H](NC(=O)CCCCCC(=O)N2C[C@@H]3C[C@H]2CN3CC[C@H](CSc2ccccc2)Nc2ccc(S(=O)(=O)NC(=O)c3ccc(N4CCN(CC5=C(c6ccc(Cl)cc6)CCC(C)(C)C5)CC4)cc3)cc2S(=O)(=O)C(F)(F)F)C(C)(C)C)cc1 [Compound 13, (2S,4R)-1-((S)-2-(7-((1S,4S)-5-((R)-3-((4-(N-(4-(4-((4′-chloro-4,4-dimethyl-3,4,5,6-tetrahydro-[1,1′-biphenyl]-2-yl)methyl)piperazin-1-yl)benzoyl)sulfamoyl)-2-((trifluoromethyl)sulfonyl)phenyl)amino)-4-(phenylthio)butyl)-2,5-diazabicyclo[2.2.1]heptan-2-yl)-7-oxoheptanamido)-3,3-dimethylbutanoyl)-4-hydroxy-N—((S)-1-(4-(4-methylthiazol-5-yl)phenyl)ethyl)pyrrolidine-2-carboxamide] |
| < 500 | Cc1ncsc1-c1ccc([C@H](C)NC(=O)[C@@H]2C[C@@H](O)CN2C(=O)[C@@H](NC(=O)CCCCCC(=O)N2CCN(CC[C@H](CSc3ccccc3)Nc3ccc(S(=O)(=O)NC(=O)c4ccc(N5CCN(CC6=C(c7ccc(Cl)cc7)CCOC6)CC5)cc4)cc3S(=O)(=O)C(F)(F)F)CC2)C(C)(C)C)cc1 [Compound 5, (2S,4R)-1-((S)-2-(7-(4-((R)-3-((4-(N-(4-(4-((4-(4-chlorophenyl)-5,6-dihydro-2H-pyran-3-yl)methyl)piperazin-1-yl)benzoyl)sulfamoyl)-2-((trifluoromethyl)sulfonyl)phenyl)amino)-4-(phenylthio)butyl)piperazin-1-yl)-7-oxoheptanamido)-3,3-dimethylbutanoyl)-4-hydroxy-N—((S)-1-(4-(4-methylthiazol-5-yl)phenyl)ethyl)pyrrolidine-2-carboxamide] |

Same assay, conditions: read-out: IC50 for the inhibition of MOLT-4 cell proliferation

| SMILES | IC50 [nM] |
| --- | --- |
| Cc1ncsc1-c1ccc([C@H](C)NC(=O)[C@@H]2C[C@@H](O)CN2C(=O)[C@@H](NC(=O)CCCCCCC(=O)N2CCN(CC[C@H](CSc3ccccc3)Nc3ccc(S(=O)(=O)NC(=O)c4ccc(N5CCN(CC6=C(c7ccc(Cl)cc7F)CCC7(CC7)C6)CC5)cc4)cc3S(=O)(=O)C(F)(F)F)CC2)C(C)(C)C)cc1 [Compound 32, (2S,4R)-1-((S)-2-(8-(4-((R)-3-((4-(N-(4-(4-((6-(4-chloro-2-fluorophenyl)spiro[2.5]oct-5-en-5-yl)methyl)piperazin-1-yl)benzoyl)sulfamoyl)-2-((trifluoromethyl)sulfonyl)phenyl)amino)-4-(phenylthio)butyl)piperazin-1-yl)-8-oxoheptanamido)-3,3-dimethylbutanoyl)-4-hydroxy-N—((S)-1-(4-(4-methylthiazol-5-yl)phenyl)ethyl)pyrrolidine-2-carboxamide] | < 500 |
